Data from patent US20250073357A1, “GADOLINIUM-BASED COMPOUND, AND MRI CONTRAST AGENT INCLUDING SAME” (THERANOCURE CO., LTD., priority 2021, published 2025).

Experiments:
[1] = Measurement of relaxivity (r1, r2), phantom in 3T MRI; type: physicochemical; details: tertiary distilled water, 0.0625-1 mM, linear regression, in mM-1 s-1 (unit assumed)
Description: The relaxivity (r1, r2) of each of synthesized Gd-DO3A-Va, and cyclic commercial contrast agents Gadovist® and Dotarem® as comparison groups material was measured. Specifically, a phantom was prepared by diluting the gadolinium complex in tertiary distilled water to five concentrations (0.0625, 0.125, 0.25, 0.5, 1 mM), and then T1 and T2 relaxation times were measured in 3T MRI. Thus, R (Relaxation rate=1/T) of each concentration was calculated and the relaxivity (r1, r2) result of the gadolinium complex was obtained through linear regression analysis (see FIG. 3) and shown in a following Table 1.

amyloid beta polymer = amyloid beta polymer (Homo sapiens, UniProt P05067); assay: Amyloid beta polymer targeting ability, MRI phantom experiment; type: binding; details: incubated with amyloid beta polymer 37° C. 24 hours, washed, 9.4T MR
Sequence of amyloid beta polymer (P05067 672-713 limits assumed): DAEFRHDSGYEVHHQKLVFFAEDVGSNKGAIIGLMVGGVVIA
Description: • (1) 221.5 uL of HFIP was added to 1 mg of amyloid beta at a concentration of 1 mM, followed by shaking for 1 hour at room temperature using a shaker to remove preaggregation. • (2) The amyloid beta from which the preaggregation was removed was dried, and 221.5 uL of DMSO was added thereto to achieve a 1 mM concentration. Using a mixer and sonicator, a suspension thereof was prepared, and 878.5 uL of PBS (1×, pH 7.4) was added thereto to achieve a 0.2 mM concentration. • (3) After incubating the suspension at 37° C. for 4 days using a shaker, the polymerized amyloid beta polymer was dispensed by 200 uL. Then, 20 μL of a solution in which each of Gd-DO3A-Va and the commercial contrast agent (Gadovist®) was dissolved in PBS at 2 mM concentration was added thereto. The incubation was carried out thereon at 37° C. for 24 hours using a shaker. • (4) After 24 hours has elapsed, centrifugation was performed thereon to remove the supernatant therefrom. The amyloid beta polymer was washed using PBS. 200 μL of a solution of PBS:DMSO=9:1 was added to a pellet to prepare an MRI phantom sample. As a control, a phantom sample obtained by incubating only the amyloid beta polymer was used. […]

SMILES | relaxivity r1 [1] | relaxivity r2 [1] | contrast enhancement / signal intensity compared to phantom of only amyloid beta polymer (amyloid beta polymer)
O=C([O-])CN1CCN(CC(=O)[O-])CCN([C@H](CO)[C@H](O)CO)CCN(CC(=O)[O-])CC1.[Gd+3] (racemic) [Gadovist ®] | 3.9 ± 0.1 | 4.8 ± 0.1 | little difference in contrast enhancement effect
CNC[C@H](O)[C@@H](O)[C@H](O)[C@H](O)CO.O=C([O-])CN1CCN(CC(=O)[O-])CCN(CC(=O)O)CCN(CC(=O)[O-])CC1.[Gd+3] [Dotarem ®] | 3.4 ± 0.1 | 3.9 ± 0.2 | –
